Laboratory results taken from patent US20260365618A1 (priority 2022, published 2026).
≈ marks a conversion by molar mass, not a printed value.

System: F. tularensis subsp. holarctica
Experiment: microbe, parasite or virus in culture
Assay type: cell-based, Francisella tularensis subsp. holarctica
Settings: Francisella tularensis, 48 h

Question: With `CC[C@H]1OC(=O)[C@H](C)[C@@H](O[C@H]2C[C@@](C)(OC)[C@@H](O)[C@H](C)O2)[C@H](C)[C@@H](O[C@@H]2O[C@H](C)C[C@H](N(C)C)[C@H]2O)[C@](C)(O)C[C@@H](C)C(=O)[C@H](C)[C@@H](O)[C@]1(C)O` [Erythromycin] as the compound, how does the MIC50 read?
Answer: 8 µg/mL (≈ 10.9 µM)

Question: Which results are given for `C=C[C@]1(C)C[C@@H](OC(=O)CS[C@@H]2CC[C@@H](N)C[C@H]2O)[C@]2(C)[C@H](C)CC[C@]3(CCC(=O)[C@H]32)[C@@H](C)[C@@H]1O` [Lefamulin, 14-O-{[(1R, 2R, 4R)-4-amino-2-hydroxy-cyclohexylsulfanyl]-acetyl}-mutilin]?
Answer: MIC50: 4 µg/mL (≈ 7.88 µM); MIC (read-out: MIC Range): 0.5 to 8 µg/mL (≈ 0.985 to 15.8 µM)
